The supplement of paper PMC10307832

Key:
[1] = compound: COc1cccc2c1C(=O)c1c(O)c3c(c(O)c1C2=O)C[C@@](O)(C(=O)CO)C[C@@H]3O[C@H]1C[C@H](N)[C@H](O)[C@H](C)O1 [Doxorubicin] + COc1cc2c(Oc3ccc(NC(=O)C4(C(=O)Nc5ccc(F)cc5)CC4)cc3F)ccnc2cc1OCCCN1CCOCC1 [Foretinib] (partner 0.25 µM); assay: relative viability (nuclei count vs DMSO), 5 days (fraction); higher = more cells survive
In short: (§1)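 Relative viability equals treated-well nuclei counts divided by vehicle-well nuclei counts. Counts came from 4× images of lung cancer cell lines grown in 1536-well plates for 5 days after pin-tool dosing on the day after seeding. Dosing used one drug alone or a fixed anchor-drug dose plus five library-drug doses (not always all listed) in √10 steps, and values are medians of duplicate plates.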

[2] = compound: COC1=C(C=C(C=C1)C2=CC3=NC=CN3C(=N2)NC4=C(C=CC=N4)C(=O)N)OC [BAY61-3606] + CC1(C)CCC(c2ccc(Cl)cc2)=C(CN2CCN(c3ccc(C(=O)NS(=O)(=O)c4ccc(N[C@H](CCN5CCOCC5)CSc5ccccc5)c(S(=O)(=O)C(F)(F)F)c4)cc3)CC2)C1 [Navitoclax] (partner 0.5 µM); assay: as above
In short: as §1

| Cell Line | relative viability ([1]; first compound 0.003162 µM) | relative viability ([1]; first compound 0.01 µM) | relative viability ([1]; first compound 0.03162 µM) | relative viability ([1]; first compound 0.1 µM) | relative viability ([2]; first compound 0.02 µM) | relative viability ([2]; first compound 0.06325 µM) | relative viability ([2]; first compound 0.2 µM) | relative viability ([2]; first compound 0.6325 µM) | relative viability ([2]; first compound 2 µM) | relative viability ([1]; first compound 0.001 µM) |
| --- | --- | --- | --- | --- | --- | --- | --- | --- | --- | --- |
| NCI-H1793 | 0.881 | 0.63 | 0.531 | 0.594 | 0.547 | 0.578 | 0.471 | 0.459 | 0.249 |  |
| SK-LU-1 | 0.812 | 0.76 | 0.507 | 0.333 | 1.19 | 0.836 | 0.695 | 0.812 | 0.55 | 0.85 |
| HCC-44 |  |  |  |  | 0.935 | 0.903 | 1.01 | 1.13 | 0.816 |  |
| 201T | 1.03 | 1.02 | 0.898 | 0.523 | 1.22 | 1.2 | 1.23 | 1.21 | 1.3 | 0.963 |
| HOP-62 | 1.07 | 1.06 | 1.11 | 1.16 | 0.981 | 1.08 | 0.981 | 1.08 | 0.676 | 1.05 |
| NCI-H838 | 1.07 | 1.06 | 0.85 | 0.438 | 1.3 | 1.24 | 1.07 | 1.12 | 0.956 | 1.1 |
| NCI-H2085 | 0.981 | 1.08 | 0.923 | 0.855 | 1.31 | 1.23 | 1.12 | 1.33 | 1.01 | 1.05 |
| NCI-H661 | 1 | 0.954 | 0.826 | 0.542 |  |  |  |  |  | 1.01 |
| NCI-H23 | 0.863 | 1.03 | 0.855 | 0.981 | 0.936 | 0.809 | 0.775 | 0.983 | 0.551 |  |
| A-427 | 1.13 | 0.97 | 1.02 | 1.05 | 1.03 | 0.983 | 0.962 | 1.06 | 0.914 | 0.981 |
| NCI-H647 | 1.38 | 1.14 | 0.882 | 0.545 | 1.21 | 1.05 | 1.04 | 1.26 | 0.663 | 1.2 |
| NCI-H1734 | 0.989 | 0.934 | 0.68 | 0.769 | 0.904 | 0.727 | 0.786 | 0.829 | 0.529 | 0.854 |
| NCI-H1915 | 1.11 | 1.02 | 1.06 | 1.1 | 0.775 | 0.779 | 0.715 | 0.755 | 0.765 | 1.1 |
| Calu-6 | 1.01 | 0.828 | 0.619 | 0.362 | 0.84 | 0.981 | 0.799 | 0.788 | 0.607 | 0.945 |
| NCI-H441 | 1.04 | 0.897 | 0.48 | 0.368 | 0.84 | 0.515 | 0.66 | 0.82 | 0.262 |  |
| HCC-366 | 0.963 | 0.967 | 1.01 | 0.94 | 1.09 | 1.05 | 0.87 | 0.999 | 0.891 |  |
| EMC-BAC-2 | 1.06 | 0.861 | 0.595 | 0.582 | 1.21 | 1.21 | 1.16 | 1.24 | 1.19 | 1.15 |
| LK-2 | 1.32 | 0.904 | 0.826 | 1.41 | 0.927 | 0.963 | 0.925 | 0.896 | 0.705 | 1.2 |
| NCI-H2228 | 0.992 | 0.689 | 0.651 | 0.363 | 1.18 | 0.736 | 0.658 | 1.08 | 0.713 | 0.805 |
| NCI-H460 | 1.09 | 0.843 | 0.105 | 0.0481 | 1.27 | 1.28 | 1.06 | 1.1 | 0.756 | 0.965 |
| NCI-H1993 | 0.851 | 0.769 | 0.673 | 0.839 | 0.831 | 0.785 | 0.707 | 0.819 | 0.739 | 0.876 |
| NCI-H2170 | 1.07 | 0.998 | 0.96 | 0.97 | 0.618 | 0.607 | 0.572 | 0.517 | 0.259 | 0.994 |
| LXF-289 | 0.975 | 0.97 | 1.09 | 0.98 | 0.887 | 1.05 | 0.952 | 0.981 | 1.01 | 0.958 |
| NCI-H596 | 1.04 | 0.976 | 0.619 | 0.964 | 0.942 | 1.04 | 1.09 | 1.13 | 0.712 | 0.981 |
| NCI-H3122 | 0.918 | 0.944 | 0.942 | 0.904 | 0.975 | 0.962 | 1.05 | 1 | 0.987 | 0.959 |
| NCI-H2023 | 0.934 | 0.507 | 0.461 | 0.17 | 1.03 | 1.05 | 1.07 | 1.02 | 0.873 | 0.567 |
| HCC-15 | 0.922 | 0.94 | 0.49 | 0.404 | 0.796 | 0.703 | 0.691 | 0.702 | 0.683 |  |
